Values quoted from earlier work in US8057811B2 (Douglas Pharmaceuticals Limited, priority 2003, dated 2011).

For `CN1CCN(C2=Nc3cc(Cl)ccc3Nc3ccccc32)CC1` [Clozapine], the solubility in water is given as “practically insoluble in water”.
